{"source": "patent US6465495B1", "about": "“Preparation of pyridone-based phosphotyrosine mimetics and uses thereof” (OSI Pharmaceuticals, Inc., priority 1998, dated 2002)", "origin": "cited, not measured here", "settings": "literature values", "data": [{"smiles": "N[C@@H](Cc1ccc(OP(=O)(O)O)cc1)C(=O)O", "note": "[pTyr]", "values": [{"measurement": "pKA2", "value": 5.7}]}]}
